Key:
[1] = Single dose study in healthy postmenopausal women (safety, plasma bilirubin); assay type: in vivo
Method: Single center, randomized, placebo-controlled, double-blind and parallel group study. For the 30 mg group only, a one sequence cross-over design was applied to estimate the relative bioavailability of a liquid versus a solid formulation.
In this study the AKR1C3 inhibitor was administered as a single oral dose. Eight volunteers per treatment group were included. Two volunteers per treatment group were allocated to placebo in a randomized, double-blind fashion in order to assess non-drug related factors in the safety evaluation. To ensure that 8 subjects were treated, during the pre-dose phase at least 1 backup subject had to undergo all necessary measurements to compensate for the risk that a person had to be excluded immediately before dosing due to safety concerns.
Forty-six (46, 76.7%) out of 60 treated subjects were treated with the AKR1C3 inhibitor (6 subjects per group at dose levels 1 mg, 3 mg, 10 mg, 30 mg, 120 mg, 240 mg; 5 subjects per group at 60 mg and 90 mg) and 14 subjects (23.3%) received placebo (2 subjects each in the 1 mg, 3 mg, 30 mg, 60 mg, 120 mg and 240 mg groups, and 1 subject each in the 10 mg and 90 mg groups). All 60 treated subjects (100%) completed the study and were included in the statistical analyses of safety (SAF: N=60). One out of 60 treated subjects was not valid for the analysis of pharmacodynamics due to vomiting before two times tmax (PDS: N=59). This same subject was also excluded from the PK analysis of the 46 verum-treated subjects, and all 14 placebo-treated subjects were not valid for the analysis of PK (PKS: N=45).
Bilirubin was measured employing a standard laboratory kit.

[2] = Multiple dose study Part B in healthy premenopausal tubal-ligated women, 28 days (safety, plasma bilirubin); assay type: in vivo; settings: for Plasma bilirubin concentrations above the upper limit of normal (subjects): tablets
Method: (§1) Plasma bilirubin levels were assessed prior to dosing and 1, 2, 6 and 14 days after drug administration. […] 30 mg (once daily), 90 mg (once daily) or 60 mg (twice daily) per 70 kg body weight for women of the AKR1C3 inhibitor over 14 days. Plasma bilirubin levels were assessed prior to dosing and 1, 2, 6, 10, 13, 15, 19 days after drug administration and at final examination. […] Plasma bilirubin levels were assessed prior to dosing and on cycle days 8, 12, 15, 22, 29, 33 after start of drug administration and at the follow up examinations.
(§2) The study was performed as an ascending dose study after multiple oral doses of the AKR1C3 inhibitor or placebo in 27 healthy postmenopausal (PM) women, aged 45 to 68 years (Part A) and 18 healthy tubal-ligated (TL) women, aged 18 to 48 (Part B).
The study consists of two parts: Part A was performed in healthy postmenopausal women (randomized within each dose level and placebo-controlled), Part B in healthy premenopausal women with tubal-ligation (open label; intraindividual comparison to pre-treatment cycle) with 28 days treatment (i.e. approx. one menstrual cycle). The safety of 30 mg once daily, 90 mg once daily, 60 mg twice/day of the AKR1C3 inhibitor given over 14 days was assessed in postmenopausal women prior to exposing premenopausal women to the corresponding doses of 60 mg once daily, 60 mg twice/day over 28 days. • Part A and Part B were further divided into different periods: • Part A: screening, pre-dose, treatment period 1 with single dose administration, treatment period 2 with multiple dose administration on 14 consecutive days and follow-up. […] Three increasing dosages of the AKR1C3 inhibitor were tested: 30 mg once daily, 90 mg once daily and 60 mg twice daily. In addition, a lower dose 3 mg once daily was evaluated. Nine volunteers per dose level were included into the study; thereof, n = 7 women were randomly assigned to treatment with the respective dose and n = 2 to placebo treatment. The study drug was administered in a double-blind manner within one dose level, i.e. all volunteers of that dose level received the same number of tablets identical in appearance. • Part B: screening, pre-dose (pre-treatment cycle), treatment period with multiple dose administration on 28 consecutive days and follow-up.

[3] = Embryonic (embryo-fetal) development study in rats; assay type: in vivo; settings: for NOAEL: female, rat, in vivo, po, pregnant rats, oral gavage once daily, Day 6 to Day 17 of gestation
Method: The NOAEL for developmental toxicity in rats is consequently the mid dose of 17 mg/kg.
The control received the vehicle in the same manner. All F0-females were sacrificed on Day 21 of gestation and the following parameters were recorded after removal and examination of the ovaries and the uteri: Number of corpora lutea, number and state of implantation sites (i.e, live foetus, early and late interauterine deaths, dead fetuses). […] Dead fetuses were classified as those which appeared to have died shortly before necropsy. Live foetuses were euthanised by a subcutaneous injection of sodium pentobarbitone. Individual foetal and placental weights were recorded and foetuses were examined for external abnormalities and sexed by external observation. Afterwards, approximately one half of the foetuses in each litter were examined for visceral abnormalities by microdissection. They were then eviscerated and the carcasses processed and Alizarin Red S stained for skeletal examination. The remaining foetuses were fixed in Bouin's fluid and examined for visceral abnormalities by the Wilson sectioning method. Foetal abnormalities were classified as malformations (rare and/or potentially lethal defects) and variations (commonly occurring non-lethal abnormalities).

[4] = Embryonic (embryo-fetal) development study in rabbits; assay type: in vivo; settings: for NOAEL: female, po, pregnant rabbits, oral gavage once daily, Day 6 to Day 19 of gestation
Method: However, the incidence of some foetal structural variations (= mild foetal structural abnormalities) was increased at the mid dose of 20 mg/kg and higher. […] Table 2: Preclinical safety margins
The control received the vehicle in the same manner. All F0-females were sacrificed on Day 29 of gestation and the following parameters were recorded after removal and examination of the ovaries and the uteri: Number of corpora lutea, number and state of implantation sites (i.e, live foetus, early and late interauterine deaths, dead fetuses). […] Dead fetuses were classified as those which appeared to have died shortly before necropsy. Live foetuses were euthanised by an intraperitoneal injection of sodium pentobarbitone. Individual foetal and placental weights were recorded and foetuses were examined for external abnormalities and sexed by external observation. All fetuses in each litter were examined for visceral abnormalities by microdissection, eviscerated and the carcasses processed and Alizarin Red S stained for skeletal examination. The intact heads of approximately one half of the fetuses in each litter were removed after the fetuses were killed and were processed in Bouin's fluid. The heads were then examined by the Wilson sectioning method. Foetal abnormalities were classified as malformations (rare and/or potentially lethal defects) and variations (commonly occurring non-lethal abnormalities). […] These variations were related to sternebra. […] This finding was not present in the background data. […] Thus, in summary, the NOAEL for maternal toxicity is considered to be 70 mg/kg. The NOAEL for developmental toxicity is regarded as 5 mg/kg due to the occurrence of foetal findings classified as variations at the dose of 20 mg/kg and higher.

[5] = cited from earlier work
AKR1C3 = molecular target: T1, AKR1C3 (Homo sapiens, UniProt P42330); settings: as disclosed in WO 2013045407; cited from earlier work
T1 sequence (P42330 1-323): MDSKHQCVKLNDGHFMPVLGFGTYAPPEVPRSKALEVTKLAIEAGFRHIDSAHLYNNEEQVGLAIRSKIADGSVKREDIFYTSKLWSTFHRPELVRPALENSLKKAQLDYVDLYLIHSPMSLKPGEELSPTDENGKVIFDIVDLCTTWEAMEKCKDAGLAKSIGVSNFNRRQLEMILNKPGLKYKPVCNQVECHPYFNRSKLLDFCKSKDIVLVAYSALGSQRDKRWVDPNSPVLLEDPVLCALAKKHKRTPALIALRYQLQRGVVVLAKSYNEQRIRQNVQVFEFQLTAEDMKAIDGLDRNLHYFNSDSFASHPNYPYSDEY

[6] = Multiple dose study Part A in healthy postmenopausal women, 14 days (safety, plasma bilirubin); settings: for Plasma bilirubin concentrations above the upper limit of normal (subjects): tablets
Method: as §1, §2
The study consists of two parts: Part A was performed in healthy postmenopausal women (randomized within each dose level and placebo-controlled), Part B in healthy premenopausal women with tubal-ligation (open label; intraindividual comparison to pre-treatment cycle) with 28 days treatment (i.e. approx. one menstrual cycle). The safety of 30 mg once daily, 90 mg once daily, 60 mg twice/day of the AKR1C3 inhibitor given over 14 days was assessed in postmenopausal women prior to exposing premenopausal women to the corresponding doses of 60 mg once daily, 60 mg twice/day over 28 days. • Part A and Part B were further divided into different periods: • Part A: screening, pre-dose, treatment period 1 with single dose administration, treatment period 2 with multiple dose administration on 14 consecutive days and follow-up. A wash-out period between treatment period 1 (administration day) and treatment period 2 (first administration) of at least 14 days and not more than 28 days was necessary. Women received the study medication in a fasted state in period 1 (single dose) as well as on day 14 of period 2 (multiple dose). On day 1 of period 2 the study medication was given after breakfast to evaluate the food effect. Three increasing dosages of the AKR1C3 inhibitor were tested: 30 mg once daily, 90 mg once daily and 60 mg twice daily. In addition, a lower dose 3 mg once daily was evaluated. Nine volunteers per dose level were included into the study; thereof, n = 7 women were randomly assigned to treatment with the respective dose and n = 2 to placebo treatment. The study drug was administered in a double-blind manner within one dose level, i.e. all volunteers of that dose level received the same number of tablets identical in appearance. • Part B: screening, pre-dose (pre-treatment cycle), treatment period with multiple dose administration on 28 consecutive days and follow-up. In the pre-dose period, hormonal changes during a menstrual cycle including evidence of ovulation were evaluated. Study drug administration started on day 4 of the menstrual bleeding after end of the pre-treatment cycle, the study drug was then be taken on 28 consecutive days, independent of further menstrual bleedings. The pre-treatment cycle can be separated by up to 2 menstrual cycles from the treatment period.
Total bilirubin concentrations were monitored throughout this study.Bilirubin was measured employing a standard laboratory kit. The tests were performed according to the instructions as provided by the manufacturer (Beckman coulter kit AU680).

[7] = Risk assessment on reproductive and developmental toxicities (exposure ratios animal:human) combined with clinical studies
Text: According to that regulatory guidance, there is increased concern for reproductive or developmental toxicity in humans for relative exposure ratios (animal: human) that are <10 and decreased concern for exposure ratios >25.

In the case of `CN(CCC(=O)O)C(=O)c1ccc2c(c1)CC[C@@H]1[C@@H]2CC[C@]2(C)C(c3cncc(F)c3)=CC[C@@H]12` [AKR1C3 inhibitor, N-{[17-(5-Fluoropyridin-3-yl)estra-1,3,5(10),16-tetraen-3-yl]carbonyl}-N-methyl-β-alanine], the “drug-related TEAE headache” value ([1]; female, human, in vivo) is reported as 21.7%, the “drug-related TEAE nausea” value ([1]; female, human, in vivo) is reported as 15.2% and the “drug-related TEAE vomiting” value ([1]; female, human, in vivo) is reported as 13.0%. For the same molecule, the “Serious treatment-emergent adverse events (TEAEs)” value ([1]; in vivo) was “not reported”, the indication for hemolysis ([1]; in vivo) was “no indication for hemolysis” and the “signs of drug-induced liver injury (DILI)” value ([1]; in vivo) was “no signs of drug-induced liver injury (DILI) have been detected”. The maximum tolerated dose ([1]; single dose) was 120 mg, the “well tolerated up to a single dose” value ([1]; single oral dose) was at most 120 mg and the “Plasma bilirubin concentrations above the upper limit of normal (subjects)” value ([2]; 60 mg once daily over 28 days) was 1 of 9. For the same molecule, the “changes in plasma bilirubin” value ([2]; 60 mg once daily, premenopausal women, 4 weeks of treatment) was “increases in plasma bilirubin were observed in a small fraction of subjects”, the “Plasma bilirubin concentrations above the upper limit of normal (subjects)” value ([2]; 60 mg twice daily over 28 days) was 2 of 9 and the “changes in plasma bilirubin” value ([2]; 60 mg twice daily, 28 days) was “increase in plasma bilirubin was observed in a significant fraction of subjects”. For the same molecule, the “incidence of fetal visceral and skeletal variations” value ([3]; 60 mg/kg, compared to the concurrent or historical control) was “higher incidence”, the NOAEL ([3]; doses 0, 5, 17, 60 mg/kg, read-out: NOAEL for dev. toxicity) was 17 mg/kg and the NOAEL ([3]; read-out: NOAEL for maternal toxicity) was 60 mg/kg. For the same molecule, the incidence of malformations ([3]; high dose 60 mg/kg, from eight dams, out of a total of 198 foetuses (control 1 foetus out of 211)) was 12 foetuses, the “higher systemic exposure (AUCunbound) at NOAEL than expected clinical exposure” value (shortened to “higher systemic exposure (AUCunbound)”) ([3]; rats at 17 mg/kg vs once daily 3 mg/day in humans) was about 122 fold and the “higher systemic exposure (AUCunbound)” value ([3]; rats at 17 mg/kg vs once daily 30 mg/day in humans) was about 15 fold. The “higher systemic exposure (AUCunbound)” value ([3]; rats at 17 mg/kg vs twice daily 60 mg/day in humans) was “approximately 2 fold”, the NOAEL ([4]; rabbit, in vivo, doses 0, 5, 20, 70 mg/kg, read-out: NOAEL for dev. toxicity) was 5 mg/kg and the NOAEL ([4]; rabbit, in vivo, read-out: NOAEL for maternal toxicity) was 70 mg/kg. For the same molecule, the “occurrence of sternebra with increased ossification” value ([4]; rabbit, in vivo, 5 mg/kg) was “very low incidence”, the “incidence of some foetal structural variations” value ([4]; rabbit, in vivo, 20 mg/kg) was “increased” and the “incidence of a discoloured thymus in fetuses” value ([4]; rabbit, in vivo, 70 mg/kg) was “slightly higher incidence”. For the same molecule, the “higher systemic exposure (AUCunbound)” value ([4]; rabbits at 5 mg/kg vs once daily 3 mg/day in humans) was about 17 fold, the “higher systemic exposure (AUCunbound)” value ([4]; rabbits at 5 mg/kg vs twice daily 60 mg/day in humans) was “approximately 0.3 fold” and the lesion load ([5]; 0.2 mg/kg and 0.8 mg/kg, given daily, compared to the vehicle group) was “reduction in lesion load”. The “lesions on the bladder and on/in the uterus” value ([5]; 30 mg/kg daily, compared with the vehicle group (WO 2013045407)) was “hardly any lesions could be found”, the AKR1C3 inhibition (AKR1C3) was “potent” and the “Plasma bilirubin concentrations above the upper limit of normal (subjects)” value ([6]; 60 mg twice daily over 14 days) was 5 of 7. For the same molecule, the “changes in plasma bilirubin” value ([6]; 60 mg twice daily, 14 days) was “increase in plasma bilirubin was observed in a significant fraction of subjects”, the “Plasma bilirubin concentrations above the upper limit of normal (subjects)” value ([6]; 90 mg once daily over 14 days) was 1 of 7 and the “changes in plasma bilirubin” value ([6]; 90 mg once daily, postmenopausal women, 2 weeks of treatment) was “increases in plasma bilirubin were observed in a small fraction of subjects”. The “well tolerated up to a dose” value ([6]; multiple dosing, women) was at most 60 mg twice daily, the “changes in plasma bilirubin” value ([6]; up to 30 mg once daily / 70 kg body weight, single and repeat dosing up to 14 days) was “no changes in plasma bilirubin were observed” and the “dose of decreased concern for reproductive or developmental toxicity in humans” value [7] was at most 3 mg daily dose. For the same molecule, the “dose of increased concern for reproductive or developmental toxicity in humans” value [7] was over 15 mg daily dose.

From patent publication EP3269373A1, “LOW-DOSED ORAL DOSAGE FORM OF AN AKR1C3 INHIBITOR FOR TREATMENT OF DISEASES” (Bayer Pharma Aktiengesellschaft, priority 2016, dated 2018)
